In US20240115589A1, “PHARMACEUTICAL COMPOSITION FOR PREVENTING CYTOKINE STORM” (KINKI UNIVERSITY, priority 2021, published 2024):

Key:
TNFα [1] = experiment: LPS-stimulated TNFα production in mouse macrophages (ELISA); assay type: cell-based; conditions: culture supernatant, then 10 μg/mL LPS 2 days, control 24.11, LPS alone 421.13 pg/mL
Experimental: The inhibitory effect of compounds on TNFα production involved in cytokine storm was examined using mouse macrophages.
(§1) Mouse macrophages were pre-cultured with RPMI1640 medium for 1 day. After incubation, mouse macrophages were treated with 10 μM mangiferin 8a, 10 μM norathyriol, 1 μM M9, and 1 μM M14 for 1 day. Then, 10 μg/mL LPS was added to mouse macrophages and cultured for 2 days. After incubation, the culture supernatant was collected and TNFα production was determined by enzyme-linked immunosorbent assay (ELISA). This measurement was performed using a mouse TNFα ELISA kit (R&D).

IL-6 mRNA [2] = experiment: LPS-stimulated IL-6 mRNA expression in mouse B cells (real time PCR); assay type: cell-based; conditions: then 10 μg/mL LPS 4 h, vs LPS-treated group
Experimental: (§2) Mouse B cells were pre-cultured with RPMI1640 medium for 1 day. After incubation, mouse B cells were treated with 10 μM mangiferin 8a, 10 μM norathyriol, 1 μM M9, and 1 μM M14 for 1 day. Then, 10 μg/mL LPS was added to mouse B cells and cultured for 4 h. After incubation, cells were collected, RNA was extracted, and TNFα mRNA expression was measured by real time PCR.
The inhibitory effect of compounds on IL-6 mRNA expression involved in cytokine storm was examined using mouse B cells. The experimental procedure is the same as in Example 1.
(§3) For controls, only 0.5% DMSO (diluted in PBS) used to dissolve the compounds was added. 10 μg/mL LPS administered is called the LPS-treated group, LPS and mangiferin 8a administered in combination is called the mangiferin 8a-treated group, LPS and norathyriol administered in combination is called the norathyriol group, LPS and M9 administered in combination is called the M9-treated group, LPS and M14 administered in combination is called the M14-treated group, respectively.

male C57BL/6J = experiment: Survival rate of mice treated with compound and LPS (lethality in cytokine storm); assay type: in vivo; conditions: C57BL/6J mice, 25 mg/kg LPS i.p. 5 min later, day 2, compared to LPS group
Experimental: Six-week-old male C57BL/6J (SHIMIZU Laboratory Supplies Co., Ltd.) were orally administered 50 mg/kg mangiferin 8a, 100 mg/kg norathyriol, 50 mg/kg M9, and 50 mg/kg M14. Five minutes later, 25 mg/kg LPS was administered intraperitoneally. The day of administration was set as day 0, and the survival rate was measured on day 2.
(§4) Those not receiving the compound and LPS are referred to as the control group, those receiving 25 mg/kg LPS are referred to as the LPS group, those receiving 50 mg/kg mangiferin 8a and 25 mg/kg LPS are referred to as the mangiferin 8a-treated group, those receiving 100 mg/kg norathyriol and 25 mg/kg LPS are referred to as the norathyriol-treated group, those receiving 50 mg/kg M9 and 25 mg/kg LPS are referred to as the M9-treated group, and those receiving 50 mg/kg M14 and 25 mg/kg LPS are referred to as the M14-treated group.
Referring to FIG. 9, the horizontal axis indicates compound treatment, and the vertical axis indicates survival rate (%).

IL-6 [3] = experiment: Serum IL-6 production in mice treated with compound and LPS (ELISA); assay type: in vivo; conditions: C57BL/6J mice, 25 mg/kg LPS i.p., serum 2 hours after LPS, control 2.75, LPS alone 20.1 ng/mL
Experimental: (§5) Six-week-old male C57BL/6J (Shimizu experimental material) was orally administered 100 mg/kg norathyriol, 50 mg/kg M9, and 50 mg/kg M14. Five minutes later, 25 mg/kg LPS was administered intraperitoneally. Serum was collected from mice 2 hours after LPS administration, and the amount of IL-6 production involved in the cytokine storm was measured by enzyme-linked immunosorbent assay (ELISA). This measurement was performed using a mouse IL-6 ELISA kit (R&D).
as §4, with “LPS” for “LPS group, those receiving 50 mg/kg mangiferin 8a and 25 mg/kg LPS are referred to as the mangiferin 8a-treated”

IL-6 [4] = experiment: LPS-stimulated IL-6 production in mouse macrophages (ELISA); assay type: cell-based; conditions: culture supernatant, then 10 μg/mL LPS 2 days, control 13.13, LPS alone 321.13 pg/mL
Experimental: The inhibitory effect of compounds on IL-6 production involved in cytokine storm was examined using mouse macrophages.
as §1, with “IL-6” for “TNFα”

IL-6 [5] = experiment: LPS-stimulated IL-6 production in mouse B cells (ELISA); assay type: cell-based; conditions: culture supernatant, then 10 μg/mL LPS 2 days, control 9.46, LPS alone 246.13 pg/mL
Experimental: The inhibitory effect of compounds on IL-6 production involved in cytokine storm was examined using mouse B cells.
as §1, with “B cells” for “macrophages”, “IL-6” for “TNFα”, “IL-6 ELISAkit” for “TNFα ELISA kit”

TNFα [6] = experiment: Serum TNFα production in mice treated with compound and LPS (ELISA); assay type: in vivo; conditions: C57BL/6J mice, 25 mg/kg LPS i.p., serum 2 hours after LPS, control 1.55, LPS alone 10.28 ng/mL
Experimental: as §5, with “TNFα” for “IL-6”
as §4, with “LPS” for “LPS group, those receiving 50 mg/kg mangiferin 8a and 25 mg/kg LPS are referred to as the mangiferin 8a-treated”

TNFα mRNA [7] = experiment: LPS-stimulated TNFα mRNA expression in mouse macrophages (real time PCR); assay type: cell-based; conditions: then 10 μg/mL LPS 4 h, vs LPS-treated group
Experimental: The inhibitory effect of compounds on TNFα mRNA expression involved in cytokine storm was examined using mouse macrophages.
as §2, with “macrophages” for “B cells”
as §3

TNFα [8] = experiment: LPS-stimulated TNFα production in mouse B cells (ELISA); assay type: cell-based; conditions: culture supernatant, then 10 μg/mL LPS 2 days, control 15.13, LPS alone 296.31 pg/mL
Experimental: The inhibitory effect of compounds on TNFα production involved in cytokine storm was examined using mouse B cells.
as §1, with “B cells” for “macrophages”

TNFα mRNA [9] = experiment: LPS-stimulated TNFα mRNA expression in mouse B cells (real time PCR); assay type: cell-based; conditions: then 10 μg/mL LPS 4 h, vs LPS-treated group
Experimental: The inhibitory effect of compounds on TNFα mRNA expression involved in cytokine storm was examined using mouse B cells.
as §2, §3

IL-6 mRNA [10] = experiment: LPS-stimulated IL-6 mRNA expression in mouse macrophages (real time PCR); assay type: cell-based; conditions: then 10 μg/mL LPS 4 h, vs LPS-treated group
Experimental: as §2, with “macrophages” for “B cells”
The inhibitory effect of compounds on IL-6 mRNA expression involved in cytokine storm was examined using mouse macrophages.
as §3, with “The experimental procedure is the same as in Example 3. […] For” for “For”

| Compound | TNFα production (TNFα [1]; 1 μM compound 1 day) [pg/mL] | LPS-induced IL-6 mRNA expression (ratio to GAPDH mRNA) (IL-6 mRNA [2]; 1 μM compound 1 day) | survival rate (male C57BL/6J; 50 mg/kg oral) | IL-6 production in serum (IL-6 [3]; 50 mg/kg oral) [ng/mL] | IL-6 production (IL-6 [4]; 1 μM compound 1 day) [pg/mL] | IL-6 production (IL-6 [5]; 1 μM compound 1 day) [pg/mL] | TNFα production in serum (TNFα [6]; 50 mg/kg oral) [ng/mL] | LPS-induced TNFα mRNA expression (ratio to GAPDH mRNA) (TNFα mRNA [7]; 1 μM compound 1 day) | TNFα production (TNFα [8]; 1 μM compound 1 day) [pg/mL] | LPS-induced TNFα mRNA expression (ratio to GAPDH mRNA) (TNFα mRNA [9]; 1 μM compound 1 day) | LPS-induced IL-6 mRNA expression (ratio to GAPDH mRNA) (IL-6 mRNA [10]; 1 μM compound 1 day) | TNFα production (TNFα [1]; 10 μM compound 1 day) [pg/mL] | LPS-induced IL-6 mRNA expression (ratio to GAPDH mRNA) (IL-6 mRNA [2]; 10 μM compound 1 day) | IL-6 production (IL-6 [4]; 10 μM compound 1 day) [pg/mL] | IL-6 production (IL-6 [5]; 10 μM compound 1 day) [pg/mL] | LPS-induced TNFα mRNA expression (ratio to GAPDH mRNA) (TNFα mRNA [7]; 10 μM compound 1 day) | TNFα production (TNFα [8]; 10 μM compound 1 day) [pg/mL] | LPS-induced TNFα mRNA expression (ratio to GAPDH mRNA) (TNFα mRNA [9]; 10 μM compound 1 day) | LPS-induced IL-6 mRNA expression (ratio to GAPDH mRNA) (IL-6 mRNA [10]; 10 μM compound 1 day) | further results |
| --- | --- | --- | --- | --- | --- | --- | --- | --- | --- | --- | --- | --- | --- | --- | --- | --- | --- | --- | --- | --- |
| CCCC(=O)OC[C@H]1O[C@@H](c2c(O)cc3oc4cc(O)c(O)cc4c(=O)c3c2O)[C@H](OC(=O)CCC)[C@@H](OC(=O)CCC)[C@@H]1OC(=O)CCC [M14, 2′,3′,4′,6′-tetra-O-butyrylmangiferin] | 54.13 | decrease in LPS-induced IL-6 mRNA expression | significantly reduced the decrease in survival | 14.26 | 45.13 | 45.13 | 5.2 | decrease in LPS-induced TNFα mRNA expression | 46.13 | decrease in LPS-induced TNFα mRNA expression | decrease in LPS-induced IL-6 mRNA expression |  |  |  |  |  |  |  |  |  |
| CCC(=O)OC[C@H]1O[C@@H](c2c(O)cc3oc4cc(O)c(O)cc4c(=O)c3c2OC(=O)CC)[C@H](OC(=O)CC)[C@@H](OC(=O)CC)[C@@H]1OC(=O)CC [mangiferin 8a, 1,2′,3′,4′,6′-penta-O-propionylmangiferin] |  |  | significantly reduced the decrease in survival |  |  |  |  |  |  |  |  | 65.13 | decrease in LPS-induced IL-6 mRNA expression | 69.16 | 54.13 | decrease in LPS-induced TNFα mRNA expression | 59.31 | decrease in LPS-induced TNFα mRNA expression | decrease in LPS-induced IL-6 mRNA expression |  |
| O=c1c2cc(O)c(O)cc2oc2cc(O)cc(O)c12 [norathyriol, 1,3,6,7-tetrahydroxyxanthone] |  |  |  |  |  |  |  |  |  |  |  | 68.13 | decrease in LPS-induced IL-6 mRNA expression | 64.13 | 56.13 | decrease in LPS-induced TNFα mRNA expression | 64.13 | decrease in LPS-induced TNFα mRNA expression | decrease in LPS-induced IL-6 mRNA expression | survival rate (male C57BL/6J; 100 mg/kg oral): significantly reduced the decrease in survival; IL-6 production in serum (IL-6 [3]; 100 mg/kg oral): 11.37 ng/mL; TNFα production in serum (TNFα [6]; 100 mg/kg oral): 2.71 ng/mL |
| CCC(=O)OC[C@H]1O[C@@H](c2c(O)cc3oc4cc(O)c(O)cc4c(=O)c3c2O)[C@H](OC(=O)CC)[C@@H](OC(=O)CC)[C@@H]1OC(=O)CC [M9, 2′,3′,4′,6′-tetra-O-propionylmangiferin] | 58.13 | decrease in LPS-induced IL-6 mRNA expression | significantly reduced the decrease in survival | 15.15 | 49.46 | 45.12 | 5.68 | decrease in LPS-induced TNFα mRNA expression | 55.13 | decrease in LPS-induced TNFα mRNA expression | decrease in LPS-induced IL-6 mRNA expression |  |  |  |  |  |  |  |  |  |
